Columns and labels:
[1] = biological target: T1, human PDE9A (Homo sapiens, UniProt O76083); assay: Phosphodiesterase activity, AD293 cells transiently transfected with human PDE9A; assay type: biochemical; details: 10 µM compound; read-out: Percentage inhibition at 10µM (PDE9A)
T1 construct: expressed in transfected cells; host or cells: AD293 (transient transfection)
Method: (§1) The activity measurements against the phosphodiesterases PDE7A, PDE7B, PDE9A and PDE10A were performed using AD293 cells that were transiently and separately transfected with human PDE7A, PDE7B, PDE9A, and PDE10A following the procedure described by Shipe et al..

[2] = biological target: T2, human PDE7A (Homo sapiens, UniProt Q13946); assay: Phosphodiesterase activity, AD293 cells transiently transfected with human PDE7A; assay type: biochemical; details: for inhibition at 10 µM: 10 µM compound, read-out: Percentage inhibition at 10µM (PDE7A)
T2 construct: expressed in transfected cells; host or cells: AD293 (transient transfection)
Method: as §1

[3] = biological target: T3, A2B human receptor (A2BR) (Homo sapiens, UniProt P29275); assay: Radioligand binding competition assay, human A2B receptor in transfected HEK-293 cells; details: 0.1 µM compound; read-out: percentage displacement at 0.1µM (A2BR)
T3 construct: expressed in transfected cells; host or cells: HEK-293
T3 sequence (P29275 1-332): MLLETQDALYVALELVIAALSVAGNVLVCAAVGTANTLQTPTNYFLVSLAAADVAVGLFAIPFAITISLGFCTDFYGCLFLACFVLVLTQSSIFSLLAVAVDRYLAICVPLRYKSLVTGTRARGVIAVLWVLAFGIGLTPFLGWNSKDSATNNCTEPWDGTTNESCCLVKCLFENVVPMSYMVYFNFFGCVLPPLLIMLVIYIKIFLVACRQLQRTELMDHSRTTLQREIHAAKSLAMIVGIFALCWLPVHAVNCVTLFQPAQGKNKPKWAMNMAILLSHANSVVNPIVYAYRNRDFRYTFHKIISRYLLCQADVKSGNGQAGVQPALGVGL
Method: (§2) Pharmacological evaluation was performed in a radioligand binding competition assay, using A1, A2A, A2B, and A3 human receptors expressed in transfected CHO (A1), HeLa (A2A and A3), and HEK-293 (A2B) according to the procedure reported by Bosch et al..

[4] = biological target: T4, human PDE10A (Homo sapiens, UniProt Q9Y233); assay: Phosphodiesterase activity, AD293 cells transiently transfected with human PDE10A; assay type: biochemical; details: for IC50: mean of 3 experiments in duplicate; for inhibition at 10 µM: read-out: % inhibition at 10 μM (PDE10A), 10 μM compound
T4 construct: expressed in transfected cells; host or cells: AD293 (transient transfection)
Method: (§3) Bioactivity testing was performed using A1 and A2A human adenosine receptors expressed in transfected CHO (A1) and HeLa (A2A) cells, as well as AD293 cells that were transiently transfected with human PDE10A. Table 1 includes the list of synthesized 4,6-substituted 2-amino-pyridin-3-carbonitriles, along with their Ki values against A1R, A2AR, and IC50 values against PDE10A.
as §1

[5] = biological target: T5, A3 human receptor (A3R) (Homo sapiens, UniProt P0DMS8); assay: Radioligand binding competition assay, human A3 receptor in transfected HeLa cells; details: 0.1 µM compound; read-out: percentage displacement at 0.1µM (A3R)
T5 construct: expressed in transfected cells; host or cells: HeLa
T5 sequence (P0DMS8 1-318): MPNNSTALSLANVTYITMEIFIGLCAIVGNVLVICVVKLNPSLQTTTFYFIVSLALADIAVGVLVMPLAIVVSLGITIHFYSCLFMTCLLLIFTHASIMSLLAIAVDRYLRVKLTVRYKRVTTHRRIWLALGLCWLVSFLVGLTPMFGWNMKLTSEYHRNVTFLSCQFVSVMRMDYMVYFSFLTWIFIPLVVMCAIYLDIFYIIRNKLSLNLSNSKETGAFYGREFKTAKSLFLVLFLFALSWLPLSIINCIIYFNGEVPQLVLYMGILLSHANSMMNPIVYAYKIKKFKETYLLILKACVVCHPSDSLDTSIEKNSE
Method: as §2

[6] = biological target: T6, human PDE7B (Homo sapiens, UniProt Q9NP56); assay: Phosphodiesterase activity, AD293 cells transiently transfected with human PDE7B; assay type: biochemical; details: for inhibition at 10 µM: 10 µM compound, read-out: Percentage inhibition at 10µM (PDE7B)
T6 construct: expressed in transfected cells; host or cells: AD293 (transient transfection)
Method: as §1

[7] = biological target: T7, A2A human adenosine receptor (A2AR) (Homo sapiens, UniProt P29274); assay: Radioligand binding competition assay, human A2A receptor in transfected HeLa cells; details: for % displacement at 0.1 μM (A2AR): 0.1 µM compound; for Ki: Cheng-Prusoff approximation
T7 construct: expressed in transfected cells; host or cells: HeLa
Method: as §3, §2

[8] = biological target: T8, A1 human adenosine receptor (A1R) (Homo sapiens, UniProt P30542); assay: Radioligand binding competition assay, human A1 receptor in transfected CHO cells; details: for inhibition at 0.1 µM: 0.1 µM compound, read-out: % displacement at 0.1 μM (A1R); for Ki: Cheng-Prusoff approximation
T8 construct: expressed in transfected cells; host or cells: CHO
T8 sequence (P30542 1-326): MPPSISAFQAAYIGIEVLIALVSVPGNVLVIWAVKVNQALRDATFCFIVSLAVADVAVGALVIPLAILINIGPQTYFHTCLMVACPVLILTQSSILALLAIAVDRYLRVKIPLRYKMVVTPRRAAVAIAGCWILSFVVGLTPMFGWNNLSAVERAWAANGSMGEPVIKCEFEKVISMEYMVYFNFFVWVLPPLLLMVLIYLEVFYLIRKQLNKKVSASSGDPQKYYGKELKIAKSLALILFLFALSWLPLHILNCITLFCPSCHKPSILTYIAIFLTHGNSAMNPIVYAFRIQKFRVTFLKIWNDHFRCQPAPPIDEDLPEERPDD
Method: Pharmacological evaluation was performed in a radioligand binding competition assay, using A1, A2A, A2B, and A3 human receptors expressed in transfected CHO (A1), HeLa (A2A and A3), and HEK-293 (A2B) according to the procedure reported by Bosch et al. [78].

T1 sequence (O76083 whole entry): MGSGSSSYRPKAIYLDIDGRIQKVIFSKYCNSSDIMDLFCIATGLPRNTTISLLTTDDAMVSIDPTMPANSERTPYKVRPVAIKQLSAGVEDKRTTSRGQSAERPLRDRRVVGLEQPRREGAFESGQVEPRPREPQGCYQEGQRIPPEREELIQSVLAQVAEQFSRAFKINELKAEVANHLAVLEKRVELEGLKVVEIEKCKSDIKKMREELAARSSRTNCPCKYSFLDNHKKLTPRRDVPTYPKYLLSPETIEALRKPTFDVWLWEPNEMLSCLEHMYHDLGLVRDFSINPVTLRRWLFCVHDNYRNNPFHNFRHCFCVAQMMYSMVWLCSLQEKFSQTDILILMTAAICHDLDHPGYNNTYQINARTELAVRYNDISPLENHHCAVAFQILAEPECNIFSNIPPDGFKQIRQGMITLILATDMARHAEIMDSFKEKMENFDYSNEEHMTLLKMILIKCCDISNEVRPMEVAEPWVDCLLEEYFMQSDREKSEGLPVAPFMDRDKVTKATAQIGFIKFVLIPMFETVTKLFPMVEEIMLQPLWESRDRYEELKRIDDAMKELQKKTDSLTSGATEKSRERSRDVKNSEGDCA
T2 sequence (Q13946 whole entry): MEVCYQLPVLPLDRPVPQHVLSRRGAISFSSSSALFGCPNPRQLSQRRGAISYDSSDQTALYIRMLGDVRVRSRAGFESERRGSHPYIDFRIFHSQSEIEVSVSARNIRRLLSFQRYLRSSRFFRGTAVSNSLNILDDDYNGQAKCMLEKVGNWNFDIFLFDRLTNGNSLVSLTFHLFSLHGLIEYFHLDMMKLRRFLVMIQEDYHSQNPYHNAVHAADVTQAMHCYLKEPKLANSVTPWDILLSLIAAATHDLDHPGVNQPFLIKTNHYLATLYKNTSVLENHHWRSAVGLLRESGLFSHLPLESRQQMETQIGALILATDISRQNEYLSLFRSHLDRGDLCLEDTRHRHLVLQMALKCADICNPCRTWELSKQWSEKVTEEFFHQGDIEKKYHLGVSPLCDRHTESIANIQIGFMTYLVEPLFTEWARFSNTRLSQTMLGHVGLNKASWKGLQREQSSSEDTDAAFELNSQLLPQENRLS
T4 sequence (Q9Y233 267-1055 limits assumed): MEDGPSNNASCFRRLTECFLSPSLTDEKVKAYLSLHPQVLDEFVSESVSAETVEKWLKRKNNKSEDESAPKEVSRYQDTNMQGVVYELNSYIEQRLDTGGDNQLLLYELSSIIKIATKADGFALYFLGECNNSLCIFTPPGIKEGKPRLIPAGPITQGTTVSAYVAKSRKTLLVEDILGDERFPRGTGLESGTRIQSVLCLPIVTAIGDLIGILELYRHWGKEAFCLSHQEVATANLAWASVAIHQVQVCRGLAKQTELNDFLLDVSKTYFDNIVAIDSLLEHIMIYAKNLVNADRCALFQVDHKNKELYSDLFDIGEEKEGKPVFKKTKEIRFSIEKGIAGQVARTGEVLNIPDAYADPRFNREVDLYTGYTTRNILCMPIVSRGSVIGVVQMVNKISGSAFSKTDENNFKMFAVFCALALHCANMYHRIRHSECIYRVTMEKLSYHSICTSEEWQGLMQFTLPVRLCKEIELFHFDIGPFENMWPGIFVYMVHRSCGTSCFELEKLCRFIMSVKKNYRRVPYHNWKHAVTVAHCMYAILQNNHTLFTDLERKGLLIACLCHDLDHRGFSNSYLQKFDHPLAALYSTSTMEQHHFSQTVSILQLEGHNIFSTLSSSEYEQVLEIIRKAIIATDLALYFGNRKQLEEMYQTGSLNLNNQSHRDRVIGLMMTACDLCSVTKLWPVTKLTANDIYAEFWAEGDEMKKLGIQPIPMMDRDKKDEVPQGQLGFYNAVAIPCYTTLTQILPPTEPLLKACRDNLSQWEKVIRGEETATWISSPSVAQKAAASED
T6 sequence (Q9NP56 whole entry): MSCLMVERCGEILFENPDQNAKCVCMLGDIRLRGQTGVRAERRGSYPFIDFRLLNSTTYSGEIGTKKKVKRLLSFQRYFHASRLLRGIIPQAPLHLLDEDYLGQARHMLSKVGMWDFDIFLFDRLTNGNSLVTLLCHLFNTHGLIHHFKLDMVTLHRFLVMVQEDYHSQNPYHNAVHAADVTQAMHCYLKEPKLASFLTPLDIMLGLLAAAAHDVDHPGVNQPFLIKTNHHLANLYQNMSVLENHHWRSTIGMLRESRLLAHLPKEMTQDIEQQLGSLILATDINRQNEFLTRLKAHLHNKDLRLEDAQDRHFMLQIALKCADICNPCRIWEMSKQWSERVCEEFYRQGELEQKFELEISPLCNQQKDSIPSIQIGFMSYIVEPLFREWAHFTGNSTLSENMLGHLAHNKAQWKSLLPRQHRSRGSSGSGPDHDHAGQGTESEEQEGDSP
T7 sequence (P29274 whole entry): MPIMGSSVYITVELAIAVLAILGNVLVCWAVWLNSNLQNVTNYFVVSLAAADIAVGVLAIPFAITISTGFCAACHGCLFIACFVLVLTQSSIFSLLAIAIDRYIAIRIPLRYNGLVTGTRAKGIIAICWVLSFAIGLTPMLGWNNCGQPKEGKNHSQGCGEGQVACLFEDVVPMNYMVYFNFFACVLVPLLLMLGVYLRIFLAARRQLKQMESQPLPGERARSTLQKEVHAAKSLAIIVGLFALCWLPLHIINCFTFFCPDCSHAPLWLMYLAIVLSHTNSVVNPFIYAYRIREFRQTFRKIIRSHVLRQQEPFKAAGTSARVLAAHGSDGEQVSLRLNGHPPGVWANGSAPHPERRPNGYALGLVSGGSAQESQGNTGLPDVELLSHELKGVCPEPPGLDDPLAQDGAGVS

Row | SMILES | inhibition at 10 µM [1] [%] | inhibition at 10 µM [2] [%] | inhibition at 0.1 µM [3] [%] | IC50 [4] [nM] | inhibition at 0.1 µM [5] [%] | inhibition at 10 µM [6] [%] | % displacement at 0.1 μM (A2AR) [7] [%] | melting point [°C] | inhibition at 0.1 µM [8] [%] | IC50 [2] [nM] | IC50 [6] [nM] | inhibition at 10 µM [4] [%] | Ki [8] [nM] | selectivity over all tested off-targets ([4]; PDE10A IC50 versus lowest selectivity at PDE7B (55% inhibition at 10 µM)) | Ki [7] [nM]
1 | COc1ccc(-c2cc(-c3ccccc3)nc(N)c2C#N)c(OC)c1 [Compound 6, 2-amino-4-(2,4-dimethoxyphenyl)-6-phenylpyridine-3-carbonitrile] | 1 | 51 | 1 | 5700 ± 300 | 6 | 27 | 1 | – | 12 | – | – | – | – | – | –
2 | COc1ccc(-c2cc(-c3ccccc3C)nc(N)c2C#N)cc1 [Compound 15, 2-amino-4-(4-methoxyphenyl)-6-(2-methylphenyl)pyridine-3-carbonitrile] | 16 | 57 | 4 | 1500 ± 200 | 17 | 55 | 32 | – | 6 | – | – | – | – | – | –
3 | COc1ccccc1-c1cc(-c2ccc(O)cc2)nc(N)c1C#N [Compound 22, 2-amino-6-(4-hydroxyphenyl)-4-(2-methoxyphenyl)pyridine-3-carbonitrile] | 9 | 63 | 1 | 5600 ± 500 | 2 | 16 | 1 | – | 8 | – | – | – | – | – | –
4 | COc1ccc(-c2cc(-c3ccccc3F)nc(N)c2C#N)cc1 [Compound 14, 2-amino-6-(2-fluorophenyl)-4-(4-methoxyphenyl)pyridine-3-carbonitrile] | 7 | 22 | 1 | – | 27 | 20 | 30 | – | – | – | – | 10 | 108 ± 6 | – | –
5 | COc1ccccc1-c1cc(-c2ccccc2)nc(N)c1C#N [Compound 5, 2-amino-4-(2-methoxyphenyl)-6-phenylpyridine-3-carbonitrile] | 3 | 24 | 5 | – | 26 | 30 | – | – | 53 | – | – | 28 | – | – | 543 ± 13
6 | COc1ccccc1-c1cc(-c2ccccc2C)nc(N)c1C#N [Compound 20, 2-amino-4-(2-methoxyphenyl)-6-(2-methylphenyl)pyridine-3-carbonitrile] | 12 | 31 | 3 | 6400 ± 400 | 6 | 23 | 50 | – | 12 | – | – | – | – | – | –
7 | COc1ccc(-c2cc(-c3ccc(O)cc3)nc(N)c2C#N)cc1 [Compound 17, 2-amino-6-(4-hydroxyphenyl)-4-(4-methoxyphenyl)pyridine-3-carbonitrile] | 7 | – | 1 | – | 8 | 44 | 29 | – | 46 | 3500 | – | 65 | – | – | –

Continued, values first:

Row | inhibition at 10 µM [1] [%] | inhibition at 10 µM [2] [%] | inhibition at 0.1 µM [3] [%] | IC50 [4] [nM] | inhibition at 0.1 µM [5] [%] | inhibition at 10 µM [6] [%] | % displacement at 0.1 μM (A2AR) [7] [%] | melting point [°C] | inhibition at 0.1 µM [8] [%] | IC50 [2] [nM] | IC50 [6] [nM] | inhibition at 10 µM [4] [%] | Ki [8] [nM] | selectivity over all tested off-targets ([4]; PDE10A IC50 versus lowest selectivity at PDE7B (55% inhibition at 10 µM)) | Ki [7] [nM] | SMILES
8 | 3 | 29 | 2 | 900 ± 200 | 14 | 60 | 60 | 145 to 146 | 44 | – | – | – | – | – | – | N#Cc1c(C2CCCCC2)cc(-c2ccsc2)nc1N [Compound 12, 2-amino-4-cyclohexyl-6-(thiophen-3-yl)pyridine-3-carbonitrile]
9 | 25 | – | 8 | 4000 ± 300 | 1 | – | 10 | 215 to 217 | 2 | 1800 | 7300 | – | – | – | – | N#Cc1c(-c2ccccc2Cl)cc(-c2ccc(O)cc2)nc1N [Compound 23, 2-amino-4-(2-chlorophenyl)-6-(4-hydroxyphenyl)pyridine-3-carbonitrile]
10 | 1 | 19 | 2 | – | 7 | 34 | 34 | 126 to 127 | – | – | – | 68 | 84 ± 8 | – | – | N#Cc1c(C2CCCCC2)cc(-c2ccccc2F)nc1N [Compound 9, 2-amino-4-cyclohexyl-6-(2-fluorophenyl)pyridine-3-carbonitrile]
11 | 6 | 33 | 1 | 1200 ± 100 | 26 | 45 | 11 | 160 to 162 | 16 | – | – | – | – | – | – | N#Cc1c(C2CCCCC2)cc(-c2cccs2)nc1N [Compound 11, 2-amino-4-cyclohexyl-6-(thiophen-2-yl)pyridine-3-carbonitrile]
12 | 30 | 26 | 1 | 2400 ± 200 | 13 | 55 | 50 | 125 to 126 | – | – | – | – | 294 ± 10 | twofold | – | N#Cc1c(C2CCCCC2)cc(-c2ccccc2)nc1N [Compound 8, 2-amino-4-cyclohexyl-6-phenylpyridine-3-carbonitrile]
13 | 2 | – | 33 | 3200 ± 400 | 21 | 30 | – | 205 to 207 | – | 3400 | – | – | – | – | – | COc1ccc(-c2cc(-c3ccco3)nc(N)c2C#N)cc1 [Compound 16, 2-amino-6-(furan-2-yl)-4-(4-methoxyphenyl)pyridine-3-carbonitrile]
14 | 14 | 48 | 5 | 5100 ± 400 | 2 | – | – | – | 15 | – | 4700 | – | – | – | 55 ± 2 | N#Cc1c(-c2ccco2)cc(-c2ccsc2)nc1N [Compound 25, 2-amino-4-(furan-2-yl)-6-(thiophen-3-yl)pyridine-3-carbonitrile]
15 | 1 | 47 | 2 | – | 2 | 39 | 38 | – | – | – | – | 52 | 142 ± 7 | – | – | N#Cc1c(-c2ccccc2)cc(-c2ccc(O)cc2)nc1N [Compound 2, 2-amino-6-(4-hydroxyphenyl)-4-phenylpyridine-3-carbonitrile]
16 | 1 | 9 | 2 | – | 27 | 28 | 32 | – | – | – | – | 22 | 394 ± 12 | – | – | N#Cc1c(-c2ccccc2)cc(-c2ccc(F)cc2)nc1N [Compound 1, 2-amino-6-(4-fluorophenyl)-4-phenylpyridine-3-carbonitrile]
